The values below come from US20230172206A1 (BASF SE, priority 2020, published 2023).

Assay [1] relates to Phakopsora pachyrhizi (F129L). In words: Protective control of soybean rust on soybeans (PHAKPA P2). The assay is classed as in vivo. The conditions noted are these: for % PHAKPA (F129L) Disease level P2 at 4 ppm: protective P2, 4 ppm; for % PHAKPA (F129L) Disease level P2 at 16 ppm: protective P2, 16 ppm.
Assay [2] concerns Phakopsora pachyrhizi (F129L). In words: Protective control of soybean rust on soybeans (PHAKPA P6). The assay is classed as in vivo. The conditions noted are these: for % PHAKPA (F129L) Disease level P6 at 4 ppm: protective P6, 4 ppm; for % PHAKPA (F129L) Disease level P6 at 16 ppm: protective P6, 16 ppm.

`CO/C=C(/C(=O)OC)c1cccc(C)c1CO/N=C(\C)c1c(Cl)cc(Cl)cc1OC(F)(F)F` [compound 436]: in assay [1] (F129L isolate), the “% PHAKPA (F129L) Disease level P2 at 4 ppm” value came to 70% and the “% PHAKPA (F129L) Disease level P2 at 16 ppm” value came to 15%. Moreover, in assay [2] (F129L isolate), the “% PHAKPA (F129L) Disease level P6 at 4 ppm” value worked out at 73% and the “% PHAKPA (F129L) Disease level P6 at 16 ppm” value is given as 27%.

As to `CNC(=O)/C(=N/OC)c1cccc(C)c1CO/N=C(\CC(F)(F)F)c1cc(Cl)cc(Cl)c1` [compound 255], in assay [1] (soybean rust F129L isolate), the “% PHAKPA (F129L) Disease level P2 at 4 ppm” value was found to be 97% and the “% PHAKPA (F129L) Disease level P2 at 16 ppm” value was found to be 83%. Further, in assay [2] (soybean rust F129L isolate), the “% PHAKPA (F129L) Disease level P6 at 4 ppm” value was found to be 100% and the “% PHAKPA (F129L) Disease level P6 at 16 ppm” value turned out to be 87%.

Consider `CO/N=C(/C(=O)OC)c1cccc(C)c1CO/N=C(\C)c1cccc(C2CC2)c1` [compound 297], for which, in assay [1] (soybean rust F129L isolate), the “% PHAKPA (F129L) Disease level P2 at 4 ppm” value came to 90% and the “% PHAKPA (F129L) Disease level P2 at 16 ppm” value came to 37%. Besides, in assay [2] (soybean rust F129L isolate), the “% PHAKPA (F129L) Disease level P6 at 4 ppm” value is reported as 87% and the “% PHAKPA (F129L) Disease level P6 at 16 ppm” value turned out to be 37%.

Turning to `CNC(=O)/C(=N/OC)c1cccc(C)c1CO/N=C(\C)c1cccc(F)c1C(F)(F)F` [compound 326], in assay [1] (soybean rust F129L isolate), the “% PHAKPA (F129L) Disease level P2 at 4 ppm” value is listed as 25% and the “% PHAKPA (F129L) Disease level P2 at 16 ppm” value is reported as 0%. In assay [2] (soybean rust F129L isolate), the “% PHAKPA (F129L) Disease level P6 at 4 ppm” value is listed as 30% and the “% PHAKPA (F129L) Disease level P6 at 16 ppm” value is on record as 1%.

`CNC(=O)/C(=N/OC)c1cccc(C)c1CO/N=C(\C)c1ccccc1CC(C)C` [compound 221]: in assay [1] (soybean rust F129L isolate), the “% PHAKPA (F129L) Disease level P2 at 4 ppm” value is recorded as 100% and the “% PHAKPA (F129L) Disease level P2 at 16 ppm” value was 63%. For the same molecule, in assay [2] (soybean rust F129L isolate), the “% PHAKPA (F129L) Disease level P6 at 4 ppm” value turned out to be 100% and the “% PHAKPA (F129L) Disease level P6 at 16 ppm” value worked out at 100%.

On to `CO/N=C(/C(=O)OC)c1cccc(C)c1CO/N=C(\C)c1cc(Cl)c(F)c(Cl)c1` [compound 246], for which, in assay [1] (soybean rust F129L isolate), the “% PHAKPA (F129L) Disease level P2 at 4 ppm” value came out at 40% and the “% PHAKPA (F129L) Disease level P2 at 16 ppm” value was determined as 15%. For the same molecule, in assay [2] (soybean rust F129L isolate), the “% PHAKPA (F129L) Disease level P6 at 4 ppm” value is reported as 77% and the “% PHAKPA (F129L) Disease level P6 at 16 ppm” value was found to be 7%.

As for `CNC(=O)/C(=N/OC)c1cccc(C)c1CO/N=C(\C)c1c(F)cc(F)cc1OC(F)(F)F` [compound 344], in assay [1] (soybean rust F129L isolate), the “% PHAKPA (F129L) Disease level P2 at 4 ppm” value came out at 6% and the “% PHAKPA (F129L) Disease level P2 at 16 ppm” value stood at 0%. Besides, in assay [2] (soybean rust F129L isolate), the “% PHAKPA (F129L) Disease level P6 at 4 ppm” value came to 16% and the “% PHAKPA (F129L) Disease level P6 at 16 ppm” value is given as 0%.

For `CO/N=C(/C(=O)OC)c1cccc(C)c1CO/N=C(\C)c1c(C)cccc1F` [compound 285], in assay [1] (soybean rust F129L isolate), the “% PHAKPA (F129L) Disease level P2 at 4 ppm” value was 87% and the “% PHAKPA (F129L) Disease level P2 at 16 ppm” value worked out at 50%. In assay [2] (soybean rust F129L isolate), the “% PHAKPA (F129L) Disease level P6 at 4 ppm” value turned out to be 90% and the “% PHAKPA (F129L) Disease level P6 at 16 ppm” value is reported as 35%.

In the case of `CO/N=C(/C(=O)OC)c1cccc(C)c1CO/N=C(\C)c1ccc(Br)cc1C(F)(F)F` [compound 257], in assay [1] (soybean rust F129L isolate), the “% PHAKPA (F129L) Disease level P2 at 4 ppm” value is reported as 93% and the “% PHAKPA (F129L) Disease level P2 at 16 ppm” value was found to be 35%. Moreover, in assay [2] (soybean rust F129L isolate), the “% PHAKPA (F129L) Disease level P6 at 4 ppm” value was determined as 100% and the “% PHAKPA (F129L) Disease level P6 at 16 ppm” value is given as 57%.

For the molecule `CO/N=C(/C(=O)OC)c1cccc(C)c1CO/N=C(\C)c1cc(Br)cc(F)c1F` [compound 240], in assay [1] (soybean rust F129L isolate), the “% PHAKPA (F129L) Disease level P2 at 4 ppm” value worked out at 70% and the “% PHAKPA (F129L) Disease level P2 at 16 ppm” value came out at 8%. In assay [2] (soybean rust F129L isolate), the “% PHAKPA (F129L) Disease level P6 at 4 ppm” value was 73% and the “% PHAKPA (F129L) Disease level P6 at 16 ppm” value was determined as 3%.

`CC/C(=N\OCc1c(C)cccc1/C(=N\OC)C(=O)NC)c1ccccc1` [compound 294]: in assay [1] (soybean rust F129L isolate), the “% PHAKPA (F129L) Disease level P2 at 4 ppm” value was determined as 1% and the “% PHAKPA (F129L) Disease level P2 at 16 ppm” value came to 1%. Further, in assay [2] (soybean rust F129L isolate), the “% PHAKPA (F129L) Disease level P6 at 4 ppm” value is reported as 2% and the “% PHAKPA (F129L) Disease level P6 at 16 ppm” value was determined as 0%.

In the case of `CO/N=C(/C(=O)OC)c1cccc(C)c1CO/N=C(\C)c1ccc(F)c(F)c1OC(F)(F)F` [compound 447], in assay [1] (F129L isolate), the “% PHAKPA (F129L) Disease level P2 at 4 ppm” value is given as 7% and the “% PHAKPA (F129L) Disease level P2 at 16 ppm” value was determined as 0%. Further, in assay [2] (F129L isolate), the “% PHAKPA (F129L) Disease level P6 at 4 ppm” value was 33% and the “% PHAKPA (F129L) Disease level P6 at 16 ppm” value was found to be 1%.

Turning to `CNC(=O)/C(=N/OC)c1cccc(C)c1CO/N=C(\C)c1ccccc1COC` [compound 277], in assay [1] (soybean rust F129L isolate), the “% PHAKPA (F129L) Disease level P2 at 4 ppm” value came out at 100% and the “% PHAKPA (F129L) Disease level P2 at 16 ppm” value was found to be 60%. Further, in assay [2] (soybean rust F129L isolate), the “% PHAKPA (F129L) Disease level P6 at 4 ppm” value worked out at 100% and the “% PHAKPA (F129L) Disease level P6 at 16 ppm” value is reported as 100%.

Regarding `CNC(=O)/C(=N/OC)c1cccc(C)c1CO/N=C(\C)c1cccc(Cl)c1C(F)(F)F` [compound 422], in assay [1] (F129L isolate), the “% PHAKPA (F129L) Disease level P2 at 4 ppm” value stood at 30% and the “% PHAKPA (F129L) Disease level P2 at 16 ppm” value is given as 0%. In assay [2] (F129L isolate), the “% PHAKPA (F129L) Disease level P6 at 4 ppm” value came out at 32% and the “% PHAKPA (F129L) Disease level P6 at 16 ppm” value worked out at 2%.

On to `CNC(=O)/C(=N/OC)c1cccc(C)c1CO/N=C(\C)c1cc(Cl)c(F)c(Cl)c1` [compound 247], for which, in assay [1] (soybean rust F129L isolate), the “% PHAKPA (F129L) Disease level P2 at 4 ppm” value is 16% and the “% PHAKPA (F129L) Disease level P2 at 16 ppm” value came out at 2%. In assay [2] (soybean rust F129L isolate), the “% PHAKPA (F129L) Disease level P6 at 4 ppm” value worked out at 33% and the “% PHAKPA (F129L) Disease level P6 at 16 ppm” value turned out to be 8%.
